*1 amine or outer side, *2 acyl side, *3 side chain or, on linkers, in order; H or OH if unused. Where a SMILES comes first, the peptide text is derived from it. Bridges are numbered along the chain shown (N, C = ends). [ ]: non-standard residue; d: D form. The star is where a group is joined. X5 = O=C([C@H](CCC[C@@H]1CC(F)(F)CN1)N[*:1])[*:2]; X1 = COc1cc(C[C@H](N[*:1])C(=O)[*:2])ccc1C(=O)NO; X4 = O=C(C(CCc1noc(=O)[nH]1)N[*:1])[*:2]; Ethyl(2-morpholino) = C1CN(CC*)CCO1; NMeF = CN[C@@H](Cc1ccccc1)C(=O)O; NMeGABA = CN(CCCC(=O)[*:2])[*:1]; NMeI = CC[C@H](C)[C@H](NC)C(=O)O; CH2CH(OH)CF3 = OC(C*)C(F)(F)F; NMeL = CN[C@@H](CC(C)C)C(=O)O; NMeV = CN[C@H](C(=O)O)C(C)C; NMeAbu = CC[C@H](NC)C(=O)O; NMeA = CN[C@@H](C)C(=O)O; Piperidide = C1CCN(*)CC1; dNMeA = CN[C@H](C)C(=O)O; CH2CONHMe = CNC(=O)C*; Me2NCH2CH2 = CN(C)CC*; NBuGly = CCCCNCC(=O)O; NPrGly = CCCNCC(=O)O; Sar = CNCC(=O)O; tBu = CC(C)(C)*
Columns and labels:
in vitro = details: human, Caco-2, Caco-2 (cm/sec)
Caco-2 = details: human
[1] = Membrane permeability test of cyclic peptides (Caco-2, modified/improved method of WO 2018/124162); details: human
[2] = Caco-2, Caco-2 (membrane permeability), Table 10, cyclic peptides containing Ser(S-4-F2-Pyrro-Me) (G) or Nva(2-R-4-F2-Pyrro) (H)
[3] = Caco-2, Caco-2 (cm/sec), Table 36, Papp, sequences having Papp ≥ 1.0 × 10^−6 at ARC = 3
[4] = Caco-2, Caco-2, Papp, membrane permeability, cyclic peptides comprising MeAbu(pip-4-F2), MeAbu(Mor), Ser(Et-2-Mor), MeAbu(pip-3-F2) or Abu(5-Oxo-Odz) (Table 29)

CCCCN1CC(=O)N(C)[C@@H](CC(C)C)C(=O)N[C@@H](COC(C)(C)C)C(=O)N(C)[C@@H]([C@@H](C)CC)C(=O)N(C)[C@@H](CC(C)C)C(=O)N[C@H](C(=O)N2CCCCC2)CC(=O)N[C@H](C)C(=O)N(C)[C@@H](Cc2ccccc2)C(=O)N[C@@H](Cc2ccc(C(=O)NO)c(OC)c2)C(=O)N(C)[C@@H](CC(C)C)C(=O)N[C@@H]([C@@H](C)O)C1=O [AP258] ([dA][NMeF][X1][NMeL]T[NBuGly][NMeL]S(tBu)[NMeI][NMeL]D-Piperidide; lactam N-11)
Papp (in vitro): 0.03 ×10⁻⁶ cm/s
Caco-2 (Caco-2): 2e-08 cm/s

CCCCN1CC(=O)N(C)[C@@H](CC(C)C)C(=O)N[C@@H](COC(C)(C)C)C(=O)N(C)[C@@H](Cc2ccccc2)C(=O)N(C)[C@@H](CC(C)C)C(=O)N[C@H](C(=O)N2CCCCC2)CC(=O)N[C@H](C(C)C)C(=O)N(C)[C@@H](Cc2ccccc2)C(=O)N[C@@H](COCC(O)C(F)(F)F)C(=O)N(C)[C@@H](CC(C)C)C(=O)N[C@@H]([C@@H](C)O)C1=O (stereo partly drawn) [Compound C01] ([dV][NMeF]S(CH2CH(OH)CF3)[NMeL]T[NBuGly][NMeL]S(tBu)[NMeF][NMeL]D-Piperidide; lactam N-11)
Caco-2 (membrane permeability) (Caco-2): 0.15 ×10⁻⁶ cm/s

CCCCN1CC(=O)N(C)[C@@H](CC(C)C)C(=O)N[C@@H](COC(C)(C)C)C(=O)N(C)[C@@H](Cc2ccccc2)C(=O)N(C)[C@@H](CC(C)C)C(=O)N[C@H](C(=O)N2CCCCC2)CC(=O)N[C@H](C(C)C)C(=O)N(C)[C@@H](Cc2ccccc2)C(=O)N[C@@H](COCC(O)C(F)(F)F)C(=O)N(C)[C@@H](CC(C)C)C(=O)N[C@@H]([C@@H](C)O)C1=O (stereo partly drawn) [Compound D01] ([dV][NMeF]S(CH2CH(OH)CF3)[NMeL]T[NBuGly][NMeL]S(tBu)[NMeF][NMeL]D-Piperidide; lactam N-11)
Caco-2 (membrane permeability) (Caco-2): 0.07 ×10⁻⁶ cm/s

CCCCN1CC(=O)N(C)[C@@H](Cc2ccccc2)C(=O)N(C)[C@@H](CC(C)C)C(=O)N[C@@H](C(C)C)C(=O)N(C)[C@@H](CC(C)C)C(=O)N[C@H](C(=O)N2CCCCC2)CC(=O)N(C)CC(=O)N(C)[C@@H](C(C)C)C(=O)N[C@@H](CCC[C@@H]2CC(F)(F)CN2)C(=O)N(C)[C@@H](CC(C)C)C(=O)N[C@@H]([C@@H](C)O)C1=O [Compound H06] ([Sar][NMeV][X5][NMeL]T[NBuGly][NMeF][NMeL]V[NMeL]D-Piperidide; lactam N-11)
Papp [1, 2]: 0.27 ×10⁻⁶ cm/s

CCCCN1CC(=O)N(C)[C@@H](Cc2ccccc2)C(=O)N(C)[C@@H](CC(C)C)C(=O)N[C@@H](CCC[C@@H]2CC(F)(F)CN2)C(=O)N(C)[C@@H](CC(C)C)C(=O)N[C@H](C(=O)N2CCCCC2)CC(=O)N(C)CC(=O)N(C)[C@@H](CC(C)C)C(=O)N[C@@H](C(C)C)C(=O)N(C)[C@@H](CC(C)C)C(=O)N[C@@H]([C@@H](C)O)C1=O [Compound H07] ([Sar][NMeL]V[NMeL]T[NBuGly][NMeF][NMeL][X5][NMeL]D-Piperidide; lactam N-11)
Papp [1, 2]: 0.16 ×10⁻⁶ cm/s

CCCCN1CC(=O)N(C)[C@@H](CC(C)C)C(=O)N[C@@H](COC(C)(C)C)C(=O)N(C)[C@@H](Cc2ccccc2)C(=O)N(C)[C@@H](C)C(=O)N[C@H](C(=O)N2CCCCC2)CC(=O)N[C@H](C)C(=O)N(C)[C@@H](CC)C(=O)N[C@@H](C(C)C)C(=O)N(C)[C@@H](CC(C)C)C(=O)N[C@@H](CCC[C@@H]2CC(F)(F)CN2)C1=O [Compound H08] ([dA][NMeAbu]V[NMeL][X5][NBuGly][NMeL]S(tBu)[NMeF][NMeA]D-Piperidide; lactam N-11)
Papp [1, 2]: 0.92 ×10⁻⁶ cm/s

CC(C)C[C@H]1C(=O)N[C@@H](C(C)C)C(=O)N(C)[C@@H](Cc2ccccc2)C(=O)N(C)[C@@H](C)C(=O)N[C@@H](COC(C)(C)C)C(=O)N(C)[C@@H](CC(C)C)C(=O)N[C@@H](CCC[C@@H]2CC(F)(F)CN2)C(=O)N(C)[C@@H](CC(C)C)C(=O)N(C)[C@@H](CC(C)C)C(=O)N[C@H](C(=O)N2CCCCC2)CC(=O)N(C)CCCC(=O)N1C [Compound H09] ([NMeGABA][NMeL]V[NMeF][NMeA]S(tBu)[NMeL][X5][NMeL][NMeL]D-Piperidide; lactam N-11)
Papp [1, 2]: 0.52 ×10⁻⁶ cm/s

CC(C)C[C@@H]1NC(=O)[C@H](C)N(C)C(=O)C[C@@H](C(=O)N2CCCCC2)NC(=O)[C@H](CC(C)C)N(C)C(=O)CN(C)C(=O)[C@H](CCC[C@@H]2CC(F)(F)CN2)NC(=O)[C@H](CC(C)C)N(C)C(=O)[C@H](CC(C)C)N(C)C(=O)[C@H](CC(C)C)NC(=O)[C@H](Cc2ccccc2)N(C)C(=O)[C@H](C)N(C)C1=O [Compound H10] ([NMeA]L[NMeA][NMeF]L[NMeL][NMeL][X5][Sar][NMeL]D-Piperidide; lactam N-11)
Papp [1, 2]: 0.43 ×10⁻⁶ cm/s

CCCCN1CC(=O)N(C)[C@@H](Cc2ccccc2)C(=O)N(C)[C@@H](CC(C)C)C(=O)N[C@@H](CC(C)C)C(=O)N(C)[C@@H](CC(C)C)C(=O)N[C@H](C(=O)N2CCCCC2)CC(=O)N(C)CC(=O)N(C)[C@@H](C)C(=O)N[C@@H](C(C)C)C(=O)N(C)[C@@H](CC)C(=O)N[C@@H](CCC[C@@H]2CC(F)(F)CN2)C1=O [Compound H11] ([Sar][NMeA]V[NMeAbu][X5][NBuGly][NMeF][NMeL]L[NMeL]D-Piperidide; lactam N-11)
Papp [1, 2]: 2 ×10⁻⁶ cm/s

CCCN1CC(=O)N(C)[C@@H](CC(C)C)C(=O)N[C@@H](CC(C)C)C(=O)N(C)[C@@H](Cc2ccccc2)C(=O)N(C)[C@@H](CC(C)C)C(=O)N[C@H](C(=O)N2CCCCC2)CC(=O)N[C@H](CC(C)C)C(=O)N(C)[C@@H](Cc2ccccc2)C(=O)N[C@@H](COCC(=O)NC)C(=O)N(C)[C@@H](CC(C)C)C(=O)N[C@@H]([C@@H](C)O)C1=O [Compound I01] ([dL][NMeF]S(CH2CONHMe)[NMeL]T[NPrGly][NMeL]L[NMeF][NMeL]D-Piperidide; lactam N-11)
Papp ([1]; Caco-2, Caco-2 (membrane permeability), Table 12, cyclic peptides containing Ser(NMe-Aca) (I) or Gln(Me) (J)): 0.27 ×10⁻⁶ cm/s

CC(C)C[C@@H]1NC(=O)[C@H](Cc2ccccc2)N(C)C(=O)[C@H](Cc2ccccc2)N(C)C(=O)[C@H](COCCN(C)C)NC(=O)[C@H](CC(C)C)N(C)C(=O)CCCN(C)C(=O)C[C@@H](C(=O)N2CCCCC2)NC(=O)[C@H](CC(C)C)N(C)C(=O)[C@H](CC(C)C)N(C)C(=O)[C@H]([C@@H](C)O)NC(=O)[C@H](CC(C)C)N(C)C1=O [pd55] ([NMeGABA][NMeL]S(Me2NCH2CH2)[NMeF][NMeF]L[NMeL]T[NMeL][NMeL]D-Piperidide; lactam N-11)
Papp ([1]; Caco-2, Caco-2, Papp, membrane permeability, cyclic peptides comprising Ser(Et-2-NMe2) or Gln(Ms) (Table 27)): 0.1 ×10⁻⁶ cm/s

CC[C@H](C)[C@@H]1NC(=O)[C@H](CC(C)C)N(C)C(=O)[C@H](C)N(C)C(=O)[C@H]([C@@H](C)O)NC(=O)[C@H](Cc2ccccc2)N(C)C(=O)[C@H](C)N(C)C(=O)[C@@H](C)N(C)C(=O)C[C@@H](C(=O)N(C)[C@@H](Cc2ccccc2)C(=O)N(C)[C@@H](Cc2ccccc2)C(=O)N[C@@H](C)C(=O)N2CCCCC2)NC(=O)[C@H](C(C)C)N(C)C(=O)[C@H](CC(C)C)N(C)C1=O [pd201] ([dNMeA][NMeA][NMeF]T[NMeA][NMeL]I[NMeL][NMeV]D[NMeF][NMeF]A-Piperidide; lactam N-10)
Papp [1, 3]: 2.3 ×10⁻⁶ cm/s

CC[C@H](C)[C@@H]1NC(=O)[C@H](Cc2ccccc2)N(C)C(=O)CN(C)C(=O)C[C@@H](C(=O)N2CCCCC2)NC(=O)[C@H](C(C)C)N(C)C(=O)[C@H](COC(C)(C)C)NC(=O)[C@H](CC(C)C)N(C)C(=O)[C@H](Cc2ccccc2)N(C)C(=O)CN(C)C(=O)[C@H]([C@@H](C)O)NC(=O)[C@H](Cc2ccccc2)N(C)C1=O [pd205] ([Sar][NMeF]I[NMeF]T[Sar][NMeF][NMeL]S(tBu)[NMeV]D-Piperidide; lactam N-11)
Papp [1, 3]: 1.8 ×10⁻⁶ cm/s

CC(C)C[C@@H]1NC(=O)[C@H](CC(C)C)N(C)C(=O)[C@H](C)N(C)C(=O)C[C@@H](C(=O)N2CCCCC2)NC(=O)[C@H](CC(C)C)N(C)C(=O)[C@H](Cc2ccccc2)N(C)C(=O)[C@H](Cc2ccccc2)N(C)C(=O)[C@H]([C@@H](C)O)NC(=O)[C@H](Cc2ccccc2)N(C)C1=O [pd211] ([NMeA][NMeL]L[NMeF]T[NMeF][NMeF][NMeL]D-Piperidide; lactam N-9)
Caco-2 (Caco-2): 1.4e-05 cm/s

CC[C@H](C)[C@@H]1NC(=O)[C@@H](C)N(C)C(=O)C[C@@H](C(=O)N(C)[C@@H](Cc2ccccc2)C(=O)N[C@@H](C)C(=O)N2CCCCC2)NC(=O)[C@H](Cc2ccccc2)N(C)C(=O)CN(C)C(=O)[C@H]([C@@H](C)O)NC(=O)[C@H](C)N(C)C(=O)[C@H](C(C)C)N(C)C(=O)[C@H](Cc2ccccc2)NC(=O)[C@H](CC(C)C)N(C)C(=O)[C@H](CC(C)C)N(C)C1=O [pd222] ([dNMeA]I[NMeL][NMeL]F[NMeV][NMeA]T[Sar][NMeF]D[NMeF]A-Piperidide; lactam N-11)
Papp [1, 3]: 1.1 ×10⁻⁶ cm/s

CC[C@H](C)[C@@H]1NC(=O)[C@H](CC(C)C)N(C)C(=O)CCCN(C)C(=O)C[C@@H](C(=O)N2CCCCC2)NC(=O)[C@H](CC(C)C)N(C)C(=O)[C@H](CC(C)C)N(C)C(=O)[C@H](COCCN2CCOCC2)NC(=O)[C@H](CC(C)C)N(C)C(=O)[C@H](COC(C)(C)C)NC(=O)[C@H](CC)N(C)C(=O)[C@H](Cc2ccccc2)N(C)C1=O [pd485] ([NMeGABA][NMeL]I[NMeF][NMeAbu]S(tBu)[NMeL]S(Ethyl(2-morpholino))[NMeL][NMeL]D-Piperidide; lactam N-11)
Papp [1, 4]: 1.2 ×10⁻⁶ cm/s

CCCCN1CC(=O)N(C)[C@@H](CC(C)C)C(=O)N[C@H](C(=O)N2CCCCC2)CC(=O)N(C)[C@@H](CC)C(=O)N[C@@H](CC(C)C)C(=O)N(C)[C@@H](CC(C)C)C(=O)N(C)[C@@H](Cc2ccccc2)C(=O)NC(CCc2noc(=O)[nH]2)C(=O)N(C)[C@@H](CC(C)C)C(=O)N(C)[C@@H](CC(C)C)C(=O)N[C@@H]([C@@H](C)O)C1=O (stereo partly drawn) [pd487] ([NMeAbu]L[NMeL][NMeF][X4][NMeL][NMeL]T[NBuGly][NMeL]D-Piperidide; lactam N-11)
Papp [1, 4]: 2.2 ×10⁻⁶ cm/s
